Assays:
[1] = tested on: B. subtilis; assay: Minimal inhibitory concentration, B. subtilis; conditions: SCD liquid medium, 48 hours at 35° C.
Description: (§1) (b) Method for measuring antibacterial activity based on a minimal inhibitory concentration (MIC)
(§2) A bacterium was inoculated in a soybean casein digest (SCD) liquid medium (5 ml) and precultured for 24 hours at 35° C. The precultured bacterial liquid was diluted so as to obtain a 100-fold diluted liquid (0.1 ml), and was inoculated into an SCD liquid medium containing a thiol-silver complex (2 ml). After performing shaking culture for 48 hours at 35° C., presence or absence of proliferation was assessed.

[2] = tested on: Fusarium oxysporum; assay: Surface-smearing method, Fusarium oxysporum; format: cell-based; conditions: about 10 mg complex, 4 days at 25° C.
[3] = tested on: Cladosporium cladosporoides; assay: Surface-smearing method, Cladosporium cladosporoides; format: cell-based; parameters: key: the proliferation level of the control (=100%, -); +: up to 80% of proliferation with respect to the proliferation level of the control (=100%, -); ++: up to 40% of proliferation; +++: almost complete suppression of proliferation; conditions: about 10 mg complex, 4 days at 25° C.
[4] = tested on: P. aeruginosa; assay: Minimal inhibitory concentration, P. aeruginosa; conditions: SCD liquid medium, 48 hours at 35° C.
Description: as §1, §2

[5] = tested on: S. cerevisiae; assay: Minimal inhibitory concentration, S. cerevisiae; conditions: GP liquid medium, 48 hours at 35° C.
Description: (§3) Yeast was inoculated in a glucose-peptone (GP) liquid medium (5 ml) and precultured for 24 hours at 35° C. The precultured bacterial liquid was diluted so as to obtain a 100-fold diluted liquid (0.1 ml), and was inoculated into a GP liquid medium containing a thiol-silver complex (2 ml). After performing shaking culture for 48 hours at 35° C., presence or absence of proliferation was assessed.

[6] = tested on: S. aureus; assay: Minimal inhibitory concentration, S. aureus; format: cell-based; conditions: SCD liquid medium, 48 hours at 35° C.
[7] = tested on: E. coli; assay: Minimal inhibitory concentration, E. coli; format: cell-based; conditions: SCD liquid medium, 48 hours at 35° C.
[8] = tested on: Penicillium chrysogenum; assay: Surface-smearing method, Penicillium chrysogenum; format: cell-based; parameters: key: the proliferation level of the control (=100%, -); +: up to 80% of proliferation with respect to the proliferation level of the control (=100%, -); ++: up to 40% of proliferation; +++: almost complete suppression of proliferation; conditions: about 10 mg complex, 4 days at 25° C.
[9] = tested on: C. albicans; assay: Minimal inhibitory concentration, C. albicans; conditions: GP liquid medium, 48 hours at 35° C.
Description: as §3

[10] = tested on: Aspergillus flavus; assay: Surface-smearing method, Aspergillus flavus; format: cell-based; conditions: about 10 mg complex, 4 days at 25° C.
[11] = Solubility in water; conditions: 20° C.
[12] = Stability against exposure to light (color difference); format: physicochemical
Description: To 10 mg of each of the thiol-silver complexes shown in Table 9 to be tested, 1 ml of ethanol was added and then sonicated so as to disperse particles. The dispersed particles were uniformly fixed onto a Kiriyama filter paper (No. 3, diameter: 21 mm) by the application of a suction force. After drying, test pieces of the filter paper were sandwiched between colorless transparent plastic films (each having a thickness of 0.1 mm) and the peripheries were sealed.
The test pieces were exposed to sunlight outdoors on a sunny day. During the test, they were placed such that their surfaces received direct rays of the sun at an incidence angle of approximately 90°.
Measurement was performed using a color difference meter CR-300 (using D65 rays) manufactured by Minolta Camera Co., Ltd. Six hours after exposure to sunlight, measurement was reiterated 4 times and the data were averaged.

[13] = tested on: human cytomegalovirus (HCMV); assay: Anti-HCMV activity, Experiment 2 (2); format: cell-based; conditions: HCMV 1×10^4 pfu/ml, washed after 1 hour adsorption, 72 hours, control 120
[14] = tested on: human cytomegalovirus (HCMV); assay: Anti-HCMV activity, Experiment 1; format: cell-based; conditions: 10 μg/ml; Experiment 1, HCMV 1×10^3 pfu/ml, HEL cells, 72 hours; control 30
[15] = tested on: human cytomegalovirus (HCMV); assay: Anti-HCMV activity, Experiment 2 (1); format: cell-based; conditions: HCMV 1×10^4 pfu/ml, medium not changed, 72 hours, control 390
[16] = tested on: mice; assay: Peroral toxicity, single dose; format: in vivo, mice (ICR, male); conditions: for Dead mice/Total mice: day 14
[17] = after exposure to sunlight, six hours

## 2-Naphthalenethiol-silver complex [#3]
[1]
  Minimal Inhibitory Concentration: < 2 µg/mL
[2]
  antibacterial activity ranking, surface-smearing method: - (the proliferation level of the control (=100%, -))
[3]
  antibacterial activity ranking, surface-smearing method: +++
[4]
  Minimal Inhibitory Concentration: 250 µg/mL
[5]
  Minimal Inhibitory Concentration: 62.5 µg/mL
[6]
  Minimal Inhibitory Concentration: 250 µg/mL
[7]
  Minimal Inhibitory Concentration: 8 µg/mL
[8]
  antibacterial activity ranking, surface-smearing method: + (up to 80% of proliferation with respect to the proliferation level of the control (=100%, -))
[9]
  Minimal Inhibitory Concentration: 125 µg/mL
[10]
  antibacterial activity ranking, surface-smearing method: + (up to 80% of proliferation with respect to the proliferation level of the control (=100%, -))

## 5-Mercapto-(1H)tetrazoylacetic acid-silver complex.Na [#16-b]
[1]
  Minimal Inhibitory Concentration: 32 µg/mL
[2]
  antibacterial activity ranking, surface-smearing method: ++ (up to 40% of proliferation)
[3]
  antibacterial activity ranking, surface-smearing method: +++
[4]
  Minimal Inhibitory Concentration: 16 µg/mL
[5]
  Minimal Inhibitory Concentration: 125 µg/mL
[6]
  Minimal Inhibitory Concentration: 32 µg/mL
[7]
  Minimal Inhibitory Concentration: 16 µg/mL
[8]
  antibacterial activity ranking, surface-smearing method: +++
[9]
  Minimal Inhibitory Concentration: 250 µg/mL
[10]
  antibacterial activity ranking, surface-smearing method: + (up to 80% of proliferation with respect to the proliferation level of the control (=100%, -))

## [Cl][Ag] [silver chloride]
[11]
  solubility, in water: less than 1 % by weight

## Thiosalicylic acid-silver complex [#1L-8H]
[1]
  Minimal Inhibitory Concentration: < 2 µg/mL
[2]
  antibacterial activity ranking, surface-smearing method: ++ (up to 40% of proliferation)
[3]
  antibacterial activity ranking, surface-smearing method: +++
[12]; [17]
  L* (L*a*b* color representation): 65.4
  a* (L*a*b* color representation): 8.3
  b* (L*a*b* color representation): 40.1
[12]; before exposure to sunlight
  L* (L*a*b* color representation): 83.1
  a* (L*a*b* color representation): 13.2
  b* (L*a*b* color representation): 66.4
[4]
  Minimal Inhibitory Concentration: 16 µg/mL
[5]
  Minimal Inhibitory Concentration: 125 µg/mL
[6]
  Minimal Inhibitory Concentration: 16 µg/mL
[13]; 1 μg/ml
  number of cells positive in fluorescent staining (single field of vision): 30
[13]; 10 μg/ml
  number of cells positive in fluorescent staining (single field of vision): 30
[13]; 50 μg/ml
  number of cells positive in fluorescent staining (single field of vision): 20
[14]
  number of cells positive in fluorescent staining (single field of vision): 5
[7]
  Minimal Inhibitory Concentration: < 2 µg/mL
[8]
  antibacterial activity ranking, surface-smearing method: ++ (up to 40% of proliferation)
[9]
  Minimal Inhibitory Concentration: 1000 µg/mL
[15]; 1 μg/ml
  number of cells positive in fluorescent staining (single field of vision): 280
[15]; 10 μg/ml
  number of cells positive in fluorescent staining (single field of vision): 240
[15]; 50 μg/ml
  number of cells positive in fluorescent staining (single field of vision): 100
[16]; 1762 mg/kg peroral single dose
  Dead mice/Total mice: 0/5
[16]; 2291 mg/kg peroral single dose
  Dead mice/Total mice: 0/5
[16]; 2978 mg/kg peroral single dose
  Dead mice/Total mice: 0/4
[16]; 3871 mg/kg peroral single dose
  Dead mice/Total mice: 0/4
[16]; peroral, single dose, ICR male mice, 20160 min
  LD50: not less than 3.9 g/kg
[10]
  antibacterial activity ranking, surface-smearing method: - (the proliferation level of the control (=100%, -))

## α-Thioglycerol-silver complex [#14-b]
[1]
  Minimal Inhibitory Concentration: 250 µg/mL
[2]
  antibacterial activity ranking, surface-smearing method: - (the proliferation level of the control (=100%, -))
[3]
  antibacterial activity ranking, surface-smearing method: ++ (up to 40% of proliferation)
[4]
  Minimal Inhibitory Concentration: 62.5 µg/mL
[5]
  Minimal Inhibitory Concentration: 250 µg/mL
[6]
  Minimal Inhibitory Concentration: 250 µg/mL
[8]
  antibacterial activity ranking, surface-smearing method: + (up to 80% of proliferation with respect to the proliferation level of the control (=100%, -))
[9]
  Minimal Inhibitory Concentration: > 1000 µg/mL
[10]
  antibacterial activity ranking, surface-smearing method: - (the proliferation level of the control (=100%, -))

Source: patent US5792793A, “Antibacterial, antifungal and antiviral agent” (priority 1993, dated 1998)
